# From patent US9901582B2, “Polymorphisms in ABCB1 associated with a lack of clinical response to medicaments” (Max-Planck-Gesellschaft zur Förderung der Wisenschaften e. …, priority 2007, dated 2018)
# Where two headings read alike, the source gives them in different places.
# Legend:
# ABCB1 = ABCB1 (Homo sapiens, UniProt P08183); conditions: cited from earlier work; for Inducer: inducer of ABCB1
# P-gp [1] = conditions: after single administration, same mouse model; cited from earlier work
# P-gp [2] = test: Organ and plasma concentrations of antidepressants in abcb1ab(−/−) knockout mice versus FVB/N wild-type controls (blood-organ barrier function); conditions: for brain concentrations, times higher in the mutant mice compared to wild-type littermates: 11 days, s.c. osmotic infusion pumps; for cerebrum concentration, abcb1ab (−/−) / kidney concentration, abcb1ab (−/−) / liver concentration, abcb1ab (−/−) / lung concentration, abcb1ab (−/−) / plasma concentration, abcb1ab (−/−) / spleen concentration, abcb1ab (−/−) / testes concentration, abcb1ab (−/−): abcb1ab(−/−) mice; for cerebrum concentration, abcb1ab (−/−) / kidney concentration, abcb1ab (−/−) / liver concentration, abcb1ab (−/−) / lung concentration, abcb1ab (−/−) / plasma concentration, abcb1ab (−/−) / spleen concentration, abcb1ab (−/−) / testes concentration, abcb1ab (−/−) / cerebrum concentration, control / kidney concentration, control / liver concentration, control / lung concentration, control / plasma concentration, control / spleen concentration, control / testes concentration, control: after 11 days s.c. via osmotic pumps; for penetration into the brain (organ/plasma concentration ratio), times higher in animals lacking P-gp than in control animals / ratio (−/−)/(+/+), cerebrum / ratio (−/−)/(+/+), kidney / ratio (−/−)/(+/+), liver / ratio (−/−)/(+/+), lung / ratio (−/−)/(+/+), plasma / ratio (−/−)/(+/+), spleen / ratio (−/−)/(+/+), testes / differences in testes/plasma ratio between knockout and control: 11 days s.c.; for penetration into the brain (organ/plasma concentration ratio), times higher in animals lacking P-gp than in control animals / differences in testes/plasma ratio between knockout and control: FIG. 1; for ratio (−/−)/(+/+), cerebrum: cerebrum concentration; for ratio (−/−)/(+/+), cerebrum / ratio (−/−)/(+/+), kidney / ratio (−/−)/(+/+), liver / ratio (−/−)/(+/+), lung / ratio (−/−)/(+/+), plasma / ratio (−/−)/(+/+), spleen / ratio (−/−)/(+/+), testes: knockout/control; for ratio (−/−)/(+/+), kidney: kidney concentration; for ratio (−/−)/(+/+), liver: liver concentration; for ratio (−/−)/(+/+), lung: lung concentration; for ratio (−/−)/(+/+), plasma: plasma concentration; for ratio (−/−)/(+/+), spleen: spleen concentration; for ratio (−/−)/(+/+), testes: testes concentration; for cerebrum concentration, control / kidney concentration, control / liver concentration, control / lung concentration, control / plasma concentration, control / spleen concentration, control / testes concentration, control: wild-type control mice
# ABCB1 gene = conditions: human, in vivo
# Protocol: The antidepressant plasma concentration was monitored to assure clinically efficient drug levels.
# To this end, we created the residuals of linear regression with the dependent variable drug dose or plasma concentration and the independent variables age and gender. These residuals and SNP genotyping data were tested in an ANOVA analysis for statistical differences between the genotypes. Empiric p-values were calculated by applying 10^6 permutations (residuals randomly redistributed over the genotypes). Fisher's product method (FPM) includes the residuals of the dose or plasma concentration variables and the genotype variables from the SNPs rs2235067, rs4148740, rs2032583, rs4148739, rs11983225, rs2235040, rs12720067, rs7787082, rs10248420, rs10280101 and rs2235015.
# P-gp [3] = conditions: mouse
# [4] = male, FVB/N wild-type, in vivo, sc, 11 days
# [5] = male, abcb1ab(−/−) on FVB/N background versus FVB/N wild-type, in vivo, sc, 11 days
# [6] = male, abcb1ab(−/−) on FVB/N background, in vivo, sc, 11 days
# ABCB1, sequence (P08183 whole entry): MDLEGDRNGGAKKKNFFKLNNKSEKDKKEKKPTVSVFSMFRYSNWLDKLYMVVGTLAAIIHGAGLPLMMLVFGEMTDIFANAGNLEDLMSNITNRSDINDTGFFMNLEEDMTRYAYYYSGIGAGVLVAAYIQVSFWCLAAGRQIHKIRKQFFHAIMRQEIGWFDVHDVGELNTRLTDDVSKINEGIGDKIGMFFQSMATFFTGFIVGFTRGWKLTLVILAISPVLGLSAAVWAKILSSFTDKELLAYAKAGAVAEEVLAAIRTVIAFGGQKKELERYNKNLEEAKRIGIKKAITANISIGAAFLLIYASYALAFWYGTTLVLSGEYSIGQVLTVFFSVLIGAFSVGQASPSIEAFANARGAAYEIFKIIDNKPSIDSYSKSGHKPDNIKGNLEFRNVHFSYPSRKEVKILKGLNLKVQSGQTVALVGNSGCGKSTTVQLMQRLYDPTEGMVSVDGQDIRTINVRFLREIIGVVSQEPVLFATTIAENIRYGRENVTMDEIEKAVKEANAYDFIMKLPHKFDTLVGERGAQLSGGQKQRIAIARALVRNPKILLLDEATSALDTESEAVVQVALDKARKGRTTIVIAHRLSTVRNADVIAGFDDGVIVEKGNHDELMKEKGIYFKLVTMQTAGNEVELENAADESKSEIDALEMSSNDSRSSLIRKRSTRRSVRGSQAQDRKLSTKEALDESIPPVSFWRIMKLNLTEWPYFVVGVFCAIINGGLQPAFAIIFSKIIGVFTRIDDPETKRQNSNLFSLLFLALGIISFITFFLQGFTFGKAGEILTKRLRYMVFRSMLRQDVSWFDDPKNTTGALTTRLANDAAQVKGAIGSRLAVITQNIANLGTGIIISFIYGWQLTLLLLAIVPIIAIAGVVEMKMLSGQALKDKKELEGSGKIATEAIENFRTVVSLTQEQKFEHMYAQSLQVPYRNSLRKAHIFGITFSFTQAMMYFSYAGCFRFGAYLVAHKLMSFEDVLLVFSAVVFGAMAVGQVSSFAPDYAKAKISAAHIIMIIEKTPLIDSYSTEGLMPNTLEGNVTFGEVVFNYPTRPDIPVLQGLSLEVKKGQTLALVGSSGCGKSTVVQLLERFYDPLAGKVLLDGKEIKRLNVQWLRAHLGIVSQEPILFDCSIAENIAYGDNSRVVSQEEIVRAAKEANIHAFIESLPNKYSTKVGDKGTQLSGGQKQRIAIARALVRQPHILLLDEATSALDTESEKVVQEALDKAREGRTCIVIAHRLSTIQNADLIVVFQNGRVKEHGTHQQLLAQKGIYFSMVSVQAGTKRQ
smiles,measurement,setting,value
O=c1n(CCCN2CCN(c3cccc(Cl)c3)CC2)nc2ccccn12 [Trazodone],Inducer,ABCB1,(x)
CN(C)CCC=C1c2ccccc2CCc2ccccc21 [Amitriptyline],"P-gp substrate status at the blood-brain barrier, earlier studies",P-gp [1],substrates of P-gp at the blood-brain barrier
COc1ccc(C(CN(C)C)C2(O)CCCCC2)cc1 (centres unmarked) [Venlafaxine],"P-gp substrate status at the blood-brain barrier, earlier studies",P-gp [1],substrates of P-gp at the blood-brain barrier
same,"brain concentrations, times higher in the mutant mice compared to wild-type littermates",P-gp [2],1.7 times
same,"cerebrum concentration, abcb1ab (−/−)",P-gp [2],456.32 ng/g or ml
same,"kidney concentration, abcb1ab (−/−)",P-gp [2],1054.88 ng/g or ml
same,"liver concentration, abcb1ab (−/−)",P-gp [2],323.22 ng/g or ml
same,"lung concentration, abcb1ab (−/−)",P-gp [2],672.59 ng/g or ml
same,"plasma concentration, abcb1ab (−/−)",P-gp [2],70.57 ng/g or ml
same,"spleen concentration, abcb1ab (−/−)",P-gp [2],564.20 ng/g or ml
same,"testes concentration, abcb1ab (−/−)",P-gp [2],842.61 ng/g or ml
same,"penetration into the brain (organ/plasma concentration ratio), times higher in animals lacking P-gp than in control animals",P-gp [2],1.8 times
same,"ratio (−/−)/(+/+), cerebrum",P-gp [2],1.7
same,"ratio (−/−)/(+/+), kidney",P-gp [2],1.0
same,"ratio (−/−)/(+/+), liver",P-gp [2],1.0
same,"ratio (−/−)/(+/+), lung",P-gp [2],0.9
same,"ratio (−/−)/(+/+), plasma",P-gp [2],1.0
same,"ratio (−/−)/(+/+), spleen",P-gp [2],1.0
same,"ratio (−/−)/(+/+), testes",P-gp [2],1.2
same,differences in testes/plasma ratio between knockout and control,P-gp [2],smaller but still significant differences
same,P-gp substrate status at the BBB,"P-gp [2]; this study, administration over 11 days",substrates of P-gp at the BBB
same,"cerebrum concentration, control",P-gp [2],261.14 ng/g or ml
same,"kidney concentration, control",P-gp [2],1035.27 ng/g or ml
same,"liver concentration, control",P-gp [2],314.59 ng/g or ml
same,"lung concentration, control",P-gp [2],747.38 ng/g or ml
same,"plasma concentration, control",P-gp [2],71.37 ng/g or ml
same,"spleen concentration, control",P-gp [2],581.95 ng/g or ml
same,"testes concentration, control",P-gp [2],715.92 ng/g or ml
"CN(C)CC(c1ccc(O)cc1)C1(O)CCCCC1 [D-Venlafaxine, O-desmethyl venlafaxine]","brain concentrations, times higher in the mutant mice compared to wild-type littermates",P-gp [2],4.1 times
same,"cerebrum concentration, abcb1ab (−/−)",P-gp [2],36.99 ng/g or ml
same,"kidney concentration, abcb1ab (−/−)",P-gp [2],127.32 ng/g or ml
same,"liver concentration, abcb1ab (−/−)",P-gp [2],88.22 ng/g or ml
same,"lung concentration, abcb1ab (−/−)",P-gp [2],44.91 ng/g or ml
same,"plasma concentration, abcb1ab (−/−)",P-gp [2],5.98 ng/g or ml
same,"spleen concentration, abcb1ab (−/−)",P-gp [2],33.80 ng/g or ml
same,"testes concentration, abcb1ab (−/−)",P-gp [2],39.19 ng/g or ml
same,"penetration into the brain (organ/plasma concentration ratio), times higher in animals lacking P-gp than in control animals",P-gp [2],3.6 times
same,"ratio (−/−)/(+/+), cerebrum",P-gp [2],4.1
same,"ratio (−/−)/(+/+), kidney",P-gp [2],1.2
same,"ratio (−/−)/(+/+), liver",P-gp [2],1.1
same,"ratio (−/−)/(+/+), lung",P-gp [2],0.9
same,"ratio (−/−)/(+/+), plasma",P-gp [2],1.1
same,"ratio (−/−)/(+/+), spleen",P-gp [2],1.1
same,"ratio (−/−)/(+/+), testes",P-gp [2],1.3
same,differences in testes/plasma ratio between knockout and control,P-gp [2],smaller but still significant differences
same,"cerebrum concentration, control",P-gp [2],8.97 ng/g or ml
same,"kidney concentration, control",P-gp [2],107.88 ng/g or ml
same,"liver concentration, control",P-gp [2],83.15 ng/g or ml
same,"lung concentration, control",P-gp [2],50.63 ng/g or ml
same,"plasma concentration, control",P-gp [2],5.50 ng/g or ml
same,"spleen concentration, control",P-gp [2],29.42 ng/g or ml
same,"testes concentration, control",P-gp [2],30.18 ng/g or ml
CCN(CC)CCCC(C)Nc1ccnc2cc(Cl)ccc12 (centres unmarked) [Chloroquine],Inhibitor,ABCB1; inhibitor of ABCB1,(x)
Cc1ncc2n1-c1ccc(Cl)cc1C(c1ccccc1F)=NC2 [Midazolam],Inhibitor,ABCB1,(x)
CN(C)CCCC1(c2ccc(F)cc2)OCc2cc(C#N)ccc21 (centres unmarked) [Citalopram],"P-gp substrate status at the blood-brain barrier, earlier studies",P-gp [1],substrates of P-gp at the blood-brain barrier
same,genotype-dependent differences in plasma levels of patients,ABCB1 gene,small significant difference
same,"cerebrum concentration, control",P-gp [3]; [4],158.27 ng/g or ml
same,"kidney concentration, control",P-gp [3]; [4],962.29 ng/g or ml
same,"liver concentration, control",P-gp [3]; [4],238.02 ng/g or ml
same,"lung concentration, control",P-gp [3]; [4],1238.71 ng/g or ml
same,"plasma concentration, control",P-gp [3]; [4],106.71 ng/g or ml
same,"spleen concentration, control",P-gp [3]; [4],446.96 ng/g or ml
same,"testes concentration, control",P-gp [3]; [4],428.19 ng/g or ml
same,"brain concentrations, times higher in the mutant mice compared to wild-type littermates",P-gp [3]; [5],3.0 times
same,"cerebrum concentration, abcb1ab (−/−)",P-gp [3]; [6],480.93 ng/g or ml
same,"kidney concentration, abcb1ab (−/−)",P-gp [3]; [6],795.74 ng/g or ml
same,"liver concentration, abcb1ab (−/−)",P-gp [3]; [6],240.33 ng/g or ml
same,"lung concentration, abcb1ab (−/−)",P-gp [3]; [6],1238.47 ng/g or ml
same,"plasma concentration, abcb1ab (−/−)",P-gp [3]; [6],89.37 ng/g or ml
same,"spleen concentration, abcb1ab (−/−)",P-gp [3]; [6],468.29 ng/g or ml
same,"testes concentration, abcb1ab (−/−)",P-gp [3]; [6],687.92 ng/g or ml
same,P-gp substrate status at the BBB,P-gp [3],substrates of P-gp at the BBB
CCc1nn(CCCN2CCN(c3cccc(Cl)c3)CC2)c(=O)n1CCOc1ccccc1 [Nefazodone],Inducer,ABCB1,(x)
Fc1ccc([C@@H]2CCNC[C@H]2COc2ccc3c(c2)OCO3)cc1 [Paroxetine],"P-gp substrate status at the blood-brain barrier, earlier studies",P-gp [1],substrates of P-gp at the blood-brain barrier
O=C(CCCN1CCC(O)(c2ccc(Cl)cc2)CC1)c1ccc(F)cc1 [Haloperidol],Inhibitor,ABCB1; inhibitor of ABCB1,(x)
CN1CCN2c3ncccc3Cc3ccccc3C2C1 (centres unmarked) [Mirtazapine],"cerebrum concentration, control",P-gp [3]; [4],34.90 ng/g or ml
same,"intestine concentration, control",P-gp [3]; [4],19.96 ng/g or ml
same,"kidney concentration, control",P-gp [3]; [4],70.93 ng/g or ml
same,"liver concentration, control",P-gp [3]; [4],12.39 ng/g or ml
same,"lung concentration, control",P-gp [3]; [4],61.47 ng/g or ml
same,"plasma concentration, control",P-gp [3]; [4],7.66 ng/g or ml
same,"spleen concentration, control",P-gp [3]; [4],67.54 ng/g or ml
same,"testes concentration, control",P-gp [3]; [4],61.22 ng/g or ml
same,"ratio (−/−)/(+/+), cerebrum",P-gp [3]; [5],1.5
same,"ratio (−/−)/(+/+), intestine",P-gp [3]; [5],1.2
same,"ratio (−/−)/(+/+), kidney",P-gp [3]; [5],1.3
same,"ratio (−/−)/(+/+), liver",P-gp [3]; [5],1.7
same,"ratio (−/−)/(+/+), lung",P-gp [3]; [5],1.7
same,"ratio (−/−)/(+/+), plasma",P-gp [3]; [5],1.5
same,"ratio (−/−)/(+/+), spleen",P-gp [3]; [5],1.3
same,"ratio (−/−)/(+/+), testes",P-gp [3]; [5],1.8
same,"cerebrum concentration, abcb1ab (−/−)",P-gp [3]; [6],51.31 ng/g or ml
same,"intestine concentration, abcb1ab (−/−)",P-gp [3]; [6],24.58 ng/g or ml
same,"kidney concentration, abcb1ab (−/−)",P-gp [3]; [6],91.22 ng/g or ml
same,"liver concentration, abcb1ab (−/−)",P-gp [3]; [6],20.59 ng/g or ml
same,"lung concentration, abcb1ab (−/−)",P-gp [3]; [6],105.36 ng/g or ml
same,"plasma concentration, abcb1ab (−/−)",P-gp [3]; [6],11.17 ng/g or ml
same,"spleen concentration, abcb1ab (−/−)",P-gp [3]; [6],86.19 ng/g or ml
same,"testes concentration, abcb1ab (−/−)",P-gp [3]; [6],110.29 ng/g or ml
same,P-gp substrate status at the BBB,P-gp [3],not influenced by P-gp
same,differences in testes/plasma ratio between knockout and control,"P-gp [3]; in vivo, sc",not
